Tests used:
RAW264.7 cells [1] = test: Arginase-1 expression by western blot in RAW264.7 cells under M2-type differentiation (IL-4); assay type: cell-based, mouse; conditions: RAW264.7 cells treated with IL-4 (M2-type condition)
Procedure: (§1) Sodium dodecyl sulfate-polyacrylamide gel electrophoresis (SDS-PAGE) was performed using a gel electrophoresis apparatus (Mighty Small SE 250, Hoefer Scientific Instruments, San Francisco, USA) according to the Laemmli's protocol. A dissolved fraction of cells was diluted in a sample dilution buffer [63 mM Tris (pH.6.8), 10% glycerol, 2% SDS, 0.0013% bromophenol blue, 5% β-mercaptoethanol) and electrophoresed in an electrode buffer (containing Tris (15 g), glycerin (72 g), and SDS (5 g) in 1L solution) using 8%- and 10% gels. Upon completion of gel electrophoresis, the gel was transferred onto a nitrocellulose membrane at 40 mAmps for 3 hours in a transfer buffer solution (25 mM Tris, 192 mM glycerin, 20% v/v methanol (pH 8.3)). Each of anti-TREM-2, anti-arginase-1, anti-iNOS, anti-α-SMA, and anti-collagen-1a1, as primary antibodies, was reacted on the nitrocellulose membrane, respectively, and horseradish peroxidase-conjugated goat anti-rabbit IgG and horseradish peroxidase-conjugated goat anti-mouse IgG, as secondary antibodies, were reacted thereonto for 1 hour, and the nitrocellulose membrane was allowed to develop colors using the ECL detection system (ECL chemiluminescence system, Amersham, Gaithesberg, Mass., USA). […] In each lane, the intensities were calculated using the AlphaEase™ version 5.5 software by subtracting background intensities. […]

RAW264.7 cells [2] = test: iNOS and TREM-2 expression by western blot in RAW264.7 cells under M1-type differentiation (LPS/IFN-γ); assay type: cell-based, mouse; conditions: RAW264.7 cells treated with LPS/IFN-γ (M1-type condition)
Procedure: Sodium dodecyl sulfate-polyacrylamide gel electrophoresis (SDS-PAGE) was performed using a gel electrophoresis apparatus (Mighty Small SE 250, Hoefer Scientific Instruments, San Francisco, USA) according to the Laemmli's protocol. A dissolved fraction of cells was diluted in a sample dilution buffer [63 mM Tris (pH.6.8), 10% glycerol, 2% SDS, 0.0013% bromophenol blue, 5% β-mercaptoethanol) and electrophoresed in an electrode buffer (containing Tris (15 g), glycerin (72 g), and SDS (5 g) in 1L solution) using 8%- and 10% gels. Upon completion of gel electrophoresis, the gel was transferred onto a nitrocellulose membrane at 40 mAmps for 3 hours in a transfer buffer solution (25 mM Tris, 192 mM glycerin, 20% v/v methanol (pH 8.3)). Each of anti-TREM-2, anti-arginase-1, anti-iNOS, anti-α-SMA, and anti-collagen-1a1, as primary antibodies, was reacted on the nitrocellulose membrane, respectively, and horseradish peroxidase-conjugated goat anti-rabbit IgG and horseradish peroxidase-conjugated goat anti-mouse IgG, as secondary antibodies, were reacted thereonto for 1 hour, and the nitrocellulose membrane was allowed to develop colors using the ECL detection system (ECL chemiluminescence system, Amersham, Gaithesberg, Mass., USA). The identity of protein contents in a sample was confirmed using anti-β-actin antibody and anti-lamin A/C. With respect to the change in the amount of protein expression, the coloration intensity was induced using a densitometry and the scanning of the densitometry was performed using the Image Scan & Analysis System, Alpha-Innotech Co. (USA). In each lane, the intensities were calculated using the AlphaEase™ version 5.5 software by subtracting background intensities.
In order to confirm whether gold-containing agents can induce the transformation into M2-type macrophages, the RAW264.7 cells, which is a mouse macrophage cell line, were treated with lipopolysaccharide (LPS)/interferon-gamma (IFN-γ), followed by treatment with auranofin in a condition for differentiation into M1-type macrophages, and the increase/decrease in expressions of iNOS and TREM-2 was confirmed by western blot analysis.
First, the RAW264.7 cells, which is a mouse macrophage cell line, were respectively treated with sodium aurothiomalate and aurothioglucose, which are analogous to auranofin, in a condition for differentiating the cells into M1-type macrophages by treating with lipopolysaccharide (LPS)/interferon-gamma (IFN-gamma), and the increase/decrease in expression of iNOS was confirmed by western blot analysis.

[3] = tested on: carbon tetrachloride-induced liver fibrosis; test: Mouse model with carbon tetrachloride-induced liver fibrosis: fibrosis scores, α-SMA and collagen-1a1 in liver tissue; assay type: in vivo, C57BL/6J mice; conditions: 5 times a week for 3 weeks, CCl4 mouse model
Procedure: A mouse model with carbon tetrachloride-induced liver fibrosis was prepared by repeatedly administering 0.5 ml/kg of carbon tetrachloride to C57BL/6J mice twice a week for three weeks.
Sodium dodecyl sulfate-polyacrylamide gel electrophoresis (SDS-PAGE) was performed using a gel electrophoresis apparatus (Mighty Small SE 250, Hoefer Scientific Instruments, San Francisco, USA) according to the Laemmli's protocol. A dissolved fraction of cells was diluted in a sample dilution buffer [63 mM Tris (pH.6.8), 10% glycerol, 2% SDS, 0.0013% bromophenol blue, 5% β-mercaptoethanol) and electrophoresed in an electrode buffer (containing Tris (15 g), glycerin (72 g), and SDS (5 g) in 1L solution) using 8%- and 10% gels. Upon completion of gel electrophoresis, the gel was transferred onto a nitrocellulose membrane at 40 mAmps for 3 hours in a transfer buffer solution (25 mM Tris, 192 mM glycerin, 20% v/v methanol (pH 8.3)). Each of anti-TREM-2, anti-arginase-1, anti-iNOS, anti-α-SMA, and anti-collagen-1a1, as primary antibodies, was reacted on the nitrocellulose membrane, respectively, and horseradish peroxidase-conjugated goat anti-rabbit IgG and horseradish peroxidase-conjugated goat anti-mouse IgG, as secondary antibodies, were reacted thereonto for 1 hour, and the nitrocellulose membrane was allowed to develop colors using the ECL detection system (ECL chemiluminescence system, Amersham, Gaithesberg, Mass., USA). […] In each lane, the intensities were calculated using the AlphaEase™ version 5.5 software by subtracting background intensities.
In the case of liver tissue, a certain amount of liver tissue was homogenized in a mortar along with liquid nitrogen and a cell lysis buffer, transferred into a new tube, and vortexed. The resultant was centrifuged at 14,000 rpm and 4° C. for 20 minutes and the middle layer was collected therefrom and the protein amount was quantitated by Bradford assay. After subjecting 30 μg of the protein to electrophoresis by SDS-PAGE, the change in the expression of α-SMA protein was measured by western blot analysis. […]

MEF cells = test: α-SMA expression by western blot in MEF cells treated with medium of auranofin-treated RAW264.7 cells; assay type: cell-based, mouse; conditions: MEF cells treated with medium from treated RAW264.7 cells
Procedure: as §1

SMILES | expression of arginase-1 (RAW264.7 cells [1]) | expression of iNOS (RAW264.7 cells [2]) | liver fibrosis scores ([3]; 10 mg/kg oral, H&E staining) | expression of collagen-1a1 in liver tissue ([3]; oral 1, 3 and 10 mg/kg) | expression of α-SMA in liver tissue ([3]; oral 1, 3 and 10 mg/kg) | expression of TREM-2 (RAW264.7 cells [2]) | expression of α-SMA (MEF cells)
O=C([O-])CC([S-])C(=O)[O-].[Au+].[Na+].[Na+] (stereo not shown) [sodium aurothiomalate] | increased | inhibited | – | – | – | – | –
OC[C@H]1O[C@H]([S-])[C@H](O)[C@@H](O)[C@@H]1O.[Au+] [aurothioglucose] | increased | inhibited | – | – | – | – | –
CC[PH](CC)(CC)[Au][S][C@@H]1O[C@H](COC(C)=O)[C@@H](OC(C)=O)[C@H](OC(C)=O)[C@H]1OC(C)=O [auranofin, 2,3,4,6-tetra-O-acetyl-1-thio-β-D-glucopyranosato-S-[triethylphosphine] gold] | – | inhibited | significantly lowered | apparently reduced | apparently reduced | increasing | inhibited
